Results taken from PubChem BioAssay AID1918938 (Molecular Pharmacology Branch, DTP, NCI, 2023).

System: 556581-035-R-J1-PDC complex spheroid viability
Experiment: Anticancer human tumor 556581-035-R-J1-PDC patient-derived ovarian carcinoma cell line growth inhibition
Settings: for IC50: curve of first compound; for viability, T/C: stronger effect = lower value; active = viability on the fitted dose curve at most 10% of control; inactive = the rest
Summary of the method: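 Drug combinations with the LSD1 inhibitor iadademstat tested on tumor cells co-cultured as spheroids with endothelial cells and mesenchymal stem cells. Concentrations descended in half-log increments from clinical Cmax or 10 microM.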

[1] = second compound 0.1 µM, first compound 0.0316 µM
[2] = second compound 0.1 µM, first compound 0.1 µM
[3] = second compound 0.316 µM, first compound 0.0316 µM
[4] = second compound 0.316 µM, first compound 0.1 µM
[5] = second compound 1 µM, first compound 0.0316 µM
[6] = second compound 1 µM, first compound 0.1 µM
[7] = second compound 3.16 µM, first compound 0.0316 µM
[8] = second compound 3.16 µM, first compound 0.1 µM
[9] = second compound 10 µM, first compound 0.0316 µM
[10] = second compound 10 µM, first compound 0.1 µM
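Also: spheroids exposed to agents for seven days.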
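For viability, T/C in this document: 100% = DMSO vehicle control wells.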

CC1(C)CCC(CN2CCN(c3ccc(C(=O)NS(=O)(=O)c4ccc(NCC5CCOCC5)c([N+](=O)[O-])c4)c(Oc4cnc5[nH]ccc5c4)c3)CC2)=C(c2ccc(Cl)cc2)C1 + NC1CC1c1ccc(-c2cccc(O)c2)cc1
4.04 µM: IC50 (second compound 1 µM)
inactive: viability, T/C [1] 89.8% | viability, T/C [2] 85.4% | viability, T/C (second compound 0.1 µM, first compound 0.316 µM) 73.2% | viability, T/C (second compound 0.1 µM, first compound 1 µM) 76.5% | viability, T/C (second compound 0.1 µM, first compound 3.16 µM) 65.5% | viability, T/C [3] 83.2% | viability, T/C [4] 82% | viability, T/C (second compound 0.316 µM, first compound 0.316 µM) 73.2% | viability, T/C (second compound 0.316 µM, first compound 1 µM) 75.4% | viability, T/C (second compound 0.316 µM, first compound 3.16 µM) 61.6% | viability, T/C [5] 82.6% | viability, T/C [6] 87% | viability, T/C (second compound 1 µM, first compound 0.316 µM) 81.9% | viability, T/C (second compound 1 µM, first compound 1 µM) 65.3% | viability, T/C (second compound 1 µM, first compound 3.16 µM) 67.4% | viability, T/C [7] 83.5% | viability, T/C [8] 90.3% | viability, T/C (second compound 3.16 µM, first compound 0.316 µM) 72.2% | viability, T/C (second compound 3.16 µM, first compound 1 µM) 73.9% | viability, T/C (second compound 3.16 µM, first compound 3.16 µM) 61.3% | viability, T/C [9] 85.4% | viability, T/C [10] 81.7% | viability, T/C (second compound 10 µM, first compound 0.316 µM) 75.6% | viability, T/C (second compound 10 µM, first compound 1 µM) 65.4% | viability, T/C (second compound 10 µM, first compound 3.16 µM) 55.2%
4.1 µM: IC50 (second compound 0.1 µM)
3.23 µM: IC50 (second compound 10 µM)
active: viability, T/C (second compound 0.1 µM, first compound 10 µM) 3.69% | viability, T/C (second compound 0.316 µM, first compound 10 µM) 4.26% | viability, T/C (second compound 1 µM, first compound 10 µM) 5.26% | viability, T/C (second compound 3.16 µM, first compound 10 µM) 4.73% | viability, T/C (second compound 10 µM, first compound 10 µM) 3.86%
3.94 µM: IC50 (second compound 0.316 µM)
3.82 µM: IC50 (second compound 3.16 µM)

Cn1ncnc1C1c2n[nH]c(=O)c3cc(F)cc(c23)NC1c1ccc(F)cc1 (stereo not given) + NC1CC1c1ccc(-c2cccc(O)c2)cc1
inactive: viability, T/C (second compound 0.1 µM, first compound 0.000316 µM) 90.1% | viability, T/C (second compound 0.1 µM, first compound 0.001 µM) 89.6% | viability, T/C (second compound 0.1 µM, first compound 0.00316 µM) 87.5% | viability, T/C (second compound 0.1 µM, first compound 0.01 µM) 88.7% | viability, T/C [1] 96.2% | viability, T/C [2] 81.4% | viability, T/C (second compound 0.316 µM, first compound 0.000316 µM) 89.6% | viability, T/C (second compound 0.316 µM, first compound 0.001 µM) 98.1% | viability, T/C (second compound 0.316 µM, first compound 0.00316 µM) 80.3% | viability, T/C (second compound 0.316 µM, first compound 0.01 µM) 84.9% | viability, T/C [3] 94.5% | viability, T/C [4] 74.1% | viability, T/C (second compound 1 µM, first compound 0.000316 µM) 82.8% | viability, T/C (second compound 1 µM, first compound 0.001 µM) 88.5% | viability, T/C (second compound 1 µM, first compound 0.00316 µM) 109% | viability, T/C (second compound 1 µM, first compound 0.01 µM) 81.6% | viability, T/C [5] 87% | viability, T/C [6] 81.8% | viability, T/C (second compound 3.16 µM, first compound 0.000316 µM) 94.4% | viability, T/C (second compound 3.16 µM, first compound 0.001 µM) 90% | viability, T/C (second compound 3.16 µM, first compound 0.00316 µM) 81.5% | viability, T/C (second compound 3.16 µM, first compound 0.01 µM) 80.5% | viability, T/C [7] 77.7% | viability, T/C [8] 91.6% | viability, T/C (second compound 10 µM, first compound 0.000316 µM) 86.8% | viability, T/C (second compound 10 µM, first compound 0.001 µM) 83.2% | viability, T/C (second compound 10 µM, first compound 0.00316 µM) 86.5% | viability, T/C (second compound 10 µM, first compound 0.01 µM) 87.2% | viability, T/C [9] 75.3% | viability, T/C [10] 88.2%
> 0.1 µM: IC50 (second compound 0.1 µM) | IC50 (second compound 0.316 µM) | IC50 (second compound 1 µM) | IC50 (second compound 3.16 µM) | IC50 (second compound 10 µM)

NS(=O)(=O)OCC1CC(n2ccc3c(NC4CCc5ccccc54)ncnc32)CC1O (stereo not given) + NC1CC1c1ccc(-c2cccc(O)c2)cc1
0.255 µM: IC50 (second compound 3.16 µM)
0.321 µM: IC50 (second compound 0.1 µM)
0.334 µM: IC50 (second compound 1 µM)
inactive: viability, T/C (second compound 0.1 µM, first compound 0.00949 µM) 104% | viability, T/C (second compound 0.1 µM, first compound 0.03 µM) 81.6% | viability, T/C (second compound 0.1 µM, first compound 0.0949 µM) 66.4% | viability, T/C (second compound 0.1 µM, first compound 0.3 µM) 53.8% | viability, T/C (second compound 0.1 µM, first compound 0.949 µM) 35.4% | viability, T/C (second compound 0.1 µM, first compound 3 µM) 15.2% | viability, T/C (second compound 0.316 µM, first compound 0.00949 µM) 96.3% | viability, T/C (second compound 0.316 µM, first compound 0.03 µM) 81% | viability, T/C (second compound 0.316 µM, first compound 0.0949 µM) 66.1% | viability, T/C (second compound 0.316 µM, first compound 0.3 µM) 53.6% | viability, T/C (second compound 0.316 µM, first compound 0.949 µM) 27% | viability, T/C (second compound 0.316 µM, first compound 3 µM) 18.5% | viability, T/C (second compound 1 µM, first compound 0.00949 µM) 92.5% | viability, T/C (second compound 1 µM, first compound 0.03 µM) 81.4% | viability, T/C (second compound 1 µM, first compound 0.0949 µM) 77.5% | viability, T/C (second compound 1 µM, first compound 0.3 µM) 51.7% | viability, T/C (second compound 1 µM, first compound 0.949 µM) 29.5% | viability, T/C (second compound 1 µM, first compound 3 µM) 20.7% | viability, T/C (second compound 3.16 µM, first compound 0.00949 µM) 98.9% | viability, T/C (second compound 3.16 µM, first compound 0.03 µM) 75.7% | viability, T/C (second compound 3.16 µM, first compound 0.0949 µM) 68.5% | viability, T/C (second compound 3.16 µM, first compound 0.3 µM) 45.9% | viability, T/C (second compound 3.16 µM, first compound 0.949 µM) 32.6% | viability, T/C (second compound 3.16 µM, first compound 3 µM) 17.4% | viability, T/C (second compound 10 µM, first compound 0.00949 µM) 87.8% | viability, T/C (second compound 10 µM, first compound 0.03 µM) 74.4% | viability, T/C (second compound 10 µM, first compound 0.0949 µM) 56.4% | viability, T/C (second compound 10 µM, first compound 0.3 µM) 35.2% | viability, T/C (second compound 10 µM, first compound 0.949 µM) 20.3%
0.134 µM: IC50 (second compound 10 µM)
0.28 µM: IC50 (second compound 0.316 µM)
active: viability, T/C (second compound 10 µM, first compound 3 µM) 8.52%
